Data set [1] is classed as in vivo, patients. The note with it: with crizotinib 150 mg twice daily; 3 plus 3 design.
The test system of data set [2] is cytochrome P450 family 3 subfamily A member 4 [CYP3A4]. The note with it: cited from earlier work.

The values below come from paper PMC7249761 (Journal of thoracic oncology : official publication of the …, 2016).

As for `C#Cc1cccc(Nc2ncnc3cc(OCCOC)c(OCCOC)cc23)c1` [erlotinib], the “maximum tolerated dose (MTD) of erlotinib in the combination” value in data set [1] amounted to 100 mg once daily.

`C[C@@H](Oc1cc(-c2cnn(C3CCNCC3)c2)cnc1N)c1c(Cl)ccc(F)c1Cl` [crizotinib]: the CYP3A4 inhibition result in data set [2] was “moderate cytochrome P450 family 3 subfamily A member 4 [CYP3A4] inhibitor”.
